# Patent US12589161B2, “PEGylated synthetic KL4 peptide, compositions and methods thereof” (THE UNIVERSITY OF HONG KONG, priority 2019, dated 2026)
# Read-outs that look alike come from different tables or passages of the source. Non-standard residues stand in square brackets, D forms with d. Residues, ends and D or L forms follow the SMILES beside them. PEG12 = NCCOCCOCCOCCOCCOCCOCCOCCOCCOCCOCCOCCOCCC(=O)O; PEG6 = NCCOCCOCCOCCOCCOCCOCCC(=O)O
# Tests used:
# A549 cells [1] = assay: Cellular uptake of siRNA by flow cytometry on A549 cells; type: cell-based, human; conditions: A549, 10:1 ratio, fluorescently labelled siRNA, 4 h
# Description: Flow cytometry was used to investigate the cellular uptake of peptide/siRNA complexes. A549 cells and Calu-3 cells were seeded in six-well plates at a density of 2.5×10^5 cells and 4×10^5 cells per well, respectively, one day before the experiment. The cells were transfected with peptide/siRNA complexes at 10:1 ratio (w/w) containing fluorescently labelled siRNA (150 nM) in Opti-MEM I reduced serum medium. The transfection medium was removed after 4 h of incubation, and the cells were washed with PBS once. The cells were trypsinized by 0.25% (w/v) trypsin-EDTA and suspended in culture medium. The extracellular fluorescence signal was quenched with 0.04% (w/v) trypan blue solution. After 2 min of incubation, the cells were washed with PBS thrice. The cells were resuspended in 500 μL of PBS and sieved with a sterile 40 μm cell strainer (BD Biosciences, CA, USA). The fluorescence intensity was analyzed by flow cytometry with PE/PI laser (585/42 nm) (BD FACSCantoII Analyzer, BD Biosciences, CA, USA). At least 10,000 single cells were analyzed for each sample.
# [2] = Circular dichroism, temperature ramping; type: physicochemical; conditions: 6 to 94 °C, 5 mM Tris-HCl buffer, 0.1 mg/mL
# Description: KL4 and PEG6KL4 peptides were dissolved in 5 mM Tris-HCl buffer at a final concentration of 0.1 mg/mL in 0.1% (v/v) DMSO. PEG12KL4 and PEG24KL4 were dissolved in 5 mM Tris-HCl buffer at a final concentration of 0.1 mg/mL without DMSO. CD spectra were acquired on a Chirascan™ Spectrometer (Applied Photophysics, Leatherhead, UK). For temperature ramping experiment, far-UV CD spectra were obtained with the peptide solution incubated from 6° C. to 94° C. Spectra were recorded from 260 to 190 nm using a 0.5 mm path length and were processed using Chirascan software where a spectrum of the peptide free solution was subtracted and Savitzky-Gorlay smoothing applied.
# A549 cells [3] = assay: Cellular uptake study of mRNA (flow cytometry and confocal microscopy); type: cell-based, human; conditions: 10:1 ratio (w/w), cyanine-5 labelled mRNA, 4 h post-transfection, flow cytometry
# Description: The cellular uptake of the mRNA was studied by flow cytometry and confocal microscopy. For the flow cytometry study, A549 cells were seeded in 24-well plates at a density of 0.5×10^5 cells per well one day before the experiment. The cells were transfected with naked mRNA, KL4/mRNA and PEG12KL4/mRNA complexes at 10:1 ratio (w/w) in OptiMEM I reduced serum medium containing 1 μg of cyanine-5 labelled EGFP mRNA per well. After 4 h of incubation, the cells were washed and trypsinized. Cells from three separate wells of the same treatment were combined and suspended in culture medium. The extracellular florescent signal was quenched with 0.04% (w/v) trypan blue solution. After 2 min, the cells were washed, resuspended in 300 μL of PBS and sieved with a sterile 40 μm cell strainer (BD Biosciences, CA, USA). The fluorescence intensity was analyzed by flow cytometry (BD FACSCantoII Analyzer, BD Biosciences, CA, USA). At least 1×10^4 single cells were analyzed for each sample. For the confocal study, A549 cells were seeded in a 35 mm Mattek glass bottom culture dish (Mattek Corp. Ashland, MA, USA) at a density of 1×10^5 cells per well one day before imaging. Naked mRNA, KL4/mRNA and PEG12KL4/mRNA complexes at 10:1 ratio (w/w) were prepared in Opti-MEM I reduced serum medium with 2 μg of cyanine-5 labelled mRNA per dish. […]
# A549 cells [4] = assay: GAPDH siRNA transfection on A549 cells (Western blot); type: cell-based, human; conditions: for Comparison within the same peptide prepared at different peptide to siRNA ratios: A549, one-way ANOVA, Tukey, n.s. not significant, * p<0.05, ** p<0.01, *** p<0.001; for inhibition of GAPDH protein: A549, 25 nM siRNA, 10:1 ratio (w/w); for siRNA transfection efficiency among the four peptides at different amounts of siRNA: A549, 10:1 ratio, 6 to 100 nM siRNA
# Description: A549 cells were seeded in 6-well plates at a density of 1.5×10^5 cells per well one day before transfection. The cells were transfected with peptide/siRNA complexes containing 50 pmol of GAPDH siRNA or negative control siRNA per well (50 nM). The complexes were prepared in OptiMEM I reduced serum medium at 10:1, 15:1 and 20:1 ratios (w/w). Lipofectamine 2000 was used as control. The complexes were added to the cells and incubated for 4 h at 5% CO2, 37° C. before being washed with PBS. The transfection medium was removed and replaced with serum supplemented cell culture medium. At 72 h post-transfection, the cells were washed and lysed with cell lysis buffer. Western blotting assay was performed to analyze the level of GAPDH protein. The GAPDH expression was analyzed by densitometry of Western Blots using Image J software. The remaining GAPDH expression was the density of the GAPDH band of positive control (normalized with beta-actin of the corresponding sample) divided by the GAPDH band of negative control (normalized with the beta actin band of the corresponding sample).
# (§1) A549 cells, BEAS-2B and Calu-3 cells were seeded in six-well plates at a density of 1.6×10^5 cells per well, 2×10^5 cells per well and 3×10^5 cells per well, respectively, one to two days before transfection. The cells were transfected with peptide/siRNA complexes at 5:1 to 20:1 ratio (w/w) containing GAPDH siRNA or negative control siRNA (6 to 100 nM) in OptiMEM I reduced serum medium. Lipofectamine 2000 was used for comparison. After 5 h of incubation, the cells were washed and replaced with serum supplemented cell culture medium. At 72 h post-transfection, the cells were washed and lysed with cell lysis buffer. Western blotting assay was performed to analyze the level of GAPDH protein as previously described. The GAPDH expression was analyzed by densitometry of Western blots using ImageJ software (Version 1.52). The GAPDH expression was normalized with the expression of […]-actin of the corresponding sample. The remaining GAPDH expression was the normalized GAPDH expression of positive control divided by the normalized GAPDH expression of negative control.
# [5] = Charge ratio of peptide to siRNA at 10:1 weight ratio
# Excerpt: This is partly because the uncharged PEG chains reduced the effective charge ratio between cationic KL4 and siRNA [77]. The charge ratios of KL4, PEG6KL4, PEG12KL4 and PEG24KL4 to siRNA at 10:1 weight ratio are 6.1 to 1, 5.5 to 1, 4.9 to 1 and 4.2 to 1, respectively. […] The molecular weight of the PEG used in this study, which is below 1,200 Da, is relatively low compared with others where PEG of 2,000 to 5,000 Da was often used. Therefore, PEGylated KL4 peptide/siRNA complexes remained to be positively charged, which is suitable for cellular entry. […] In addition, PEG also provides steric hindrance between the interaction of KL4 and siRNA that weakens the binding, promoting the release of siRNA from the complexes after the addition of heparin.
# [6] = Solubility of peptides in water; type: physicochemical
# BEAS-2B cells [7] = assay: GAPDH siRNA transfection on BEAS-2B cells (Western blot); type: cell-based, human; conditions: for siRNA transfection efficiency: 50 nM siRNA, 72 h; for Comparison within the same peptide prepared at different peptide to siRNA ratios: one-way ANOVA, Tukey, n.s. not significant, * p<0.05, ** p<0.01, *** p<0.001
# Description: as §1
# Calu-3 cells = assay: GAPDH siRNA transfection on Calu-3 cells (Western blot); type: cell-based, human; conditions: one-way ANOVA, Tukey, n.s. not significant, * p<0.05, ** p<0.01, *** p<0.001
# Description: as §1
# BEAS-2B cells [8] = assay: Luciferase mRNA transfection in vitro on BEAS-2B cells; type: cell-based, human; conditions: 24 h post-transfection
# Description: (§2) A549 cells and BEAS-2B cells were seeded in 24-well plates at a density of 0.5×10^5 and 1×10^5 cells per well, respectively, for overnight. The KL4/mRNA and PEG12KL4/mRNA complexes formed at 5:1 to 30:1 ratio (w/w) in OptiMEM I reduced serum medium were added to the cells at 0.5 or 1 μg mRNA per well. Naked mRNA and lipoplexes (Lipofectamine 2000/mRNA complexes) were used as controls. After 4 h of incubation, the transfection medium was replaced with serum supplemented cell culture medium. At 24 h post-transfection, the cells were washed and lysed with reporter cell lysis buffer. The luciferase expression was detected using the luciferase assay system according to the manufacturer's protocol. The luminescence was measured with luminometer (SpectraMax L Microplate Reader, Molecular devices, CA, USA) and the protein concentrations of the cell lysates were quantified by Bradford protein assay. The results were expressed as relative light unit (RLU) per mg of total protein. To study the transfection efficiency of PEG12KL4/mRNA in SD and SFD powder formulations, the powders were reconstituted before adding to the cells. The luciferase expression was examined at 24 h post-transfection as described above.
# A549 cells [9] = assay: Luciferase mRNA transfection in vitro on A549 cells; type: cell-based, human; conditions: 24 h post-transfection
# Description: as §2
Compound,percentage of cells with siRNA uptake (A549 cells [1]),secondary structure at different temperatures (far-UV CD) [2],percentage of cells with mRNA uptake (A549 cells [3]),Comparison within the same peptide prepared at different peptide to siRNA ratios (A549 cells [4]),charge ratio of peptide to siRNA [5],solubility ([6]; water) [µg/mL],siRNA transfection efficiency (BEAS-2B cells [7]),Comparison within the same peptide prepared at different peptide to siRNA ratios (BEAS-2B cells [7]),Comparison within the same peptide prepared at different peptide to siRNA ratios (Calu-3 cells),inhibition of GAPDH protein (A549 cells [4]; 72 h) [%],siRNA transfection efficiency among the four peptides at different amounts of siRNA (A549 cells [4]; 72 h),solubility [6] [µg/mL],mRNA transfection efficiency compared with Lipofectamine 2000 (BEAS-2B cells [8]),mRNA transfection efficiency compared with Lipofectamine 2000 (A549 cells [9]),"siRNA transfection compared with KL4 (A549 cells [4]; A549, 10:1, 15:1 and 20:1 ratios, 50 pmol siRNA, 72 h, n=1 (FIG. 13))"
"CC(C)C[C@H](NC(=O)[C@H](CC(C)C)NC(=O)[C@H](CC(C)C)NC(=O)[C@H](CC(C)C)NC(=O)[C@H](CCCCN)NC(=O)[C@H](CC(C)C)NC(=O)[C@H](CC(C)C)NC(=O)[C@H](CC(C)C)NC(=O)[C@H](CC(C)C)NC(=O)[C@H](CCCCN)NC(=O)[C@H](CC(C)C)NC(=O)[C@H](CC(C)C)NC(=O)[C@H](CC(C)C)NC(=O)[C@H](CC(C)C)NC(=O)[C@H](CCCCN)NC(=O)[C@H](CC(C)C)NC(=O)[C@H](CC(C)C)NC(=O)[C@H](CC(C)C)NC(=O)[C@H](CC(C)C)NC(=O)[C@@H](N)CCCCN)C(=O)N[C@@H](CCCCN)C(N)=O [KL4, reference compound] (H-KLLLLKLLLLKLLLLKLLLLK-NH2; N-terminus assumed)",less than 20%,the alpha-helical structure gradually turned to a beta-sheet conformation,15%,n.s.,6.1 to 1,< 1000,,,,,,,,,
CC(C)C[C@H](NC(=O)[C@H](CC(C)C)NC(=O)[C@H](CC(C)C)NC(=O)[C@H](CC(C)C)NC(=O)[C@H](CCCCN)NC(=O)[C@H](CC(C)C)NC(=O)[C@H](CC(C)C)NC(=O)[C@H](CC(C)C)NC(=O)[C@H](CC(C)C)NC(=O)[C@H](CCCCN)NC(=O)[C@H](CC(C)C)NC(=O)[C@H](CC(C)C)NC(=O)[C@H](CC(C)C)NC(=O)[C@H](CC(C)C)NC(=O)[C@H](CCCCN)NC(=O)[C@H](CC(C)C)NC(=O)[C@H](CC(C)C)NC(=O)[C@H](CC(C)C)NC(=O)[C@H](CC(C)C)NC(=O)[C@H](CCCCN)NC(=O)CCOCCOCCOCCOCCOCCOCCN)C(=O)N[C@@H](CCCCN)C(N)=O [PEG6KL4] (H-[PEG6]KLLLLKLLLLKLLLLKLLLLK-NH2; N-terminus assumed),,adopted an alpha-helical structure at all tested temperatures,,n.s.,5.5 to 1,,significantly higher transfection efficiency compared with lipofectamine 2000,n.s.,n.s.,80,most effective in transfecting siRNA,< 1000,,,
CC(C)C[C@H](NC(=O)[C@H](CC(C)C)NC(=O)[C@H](CC(C)C)NC(=O)[C@H](CC(C)C)NC(=O)[C@H](CCCCN)NC(=O)[C@H](CC(C)C)NC(=O)[C@H](CC(C)C)NC(=O)[C@H](CC(C)C)NC(=O)[C@H](CC(C)C)NC(=O)[C@H](CCCCN)NC(=O)[C@H](CC(C)C)NC(=O)[C@H](CC(C)C)NC(=O)[C@H](CC(C)C)NC(=O)[C@H](CC(C)C)NC(=O)[C@H](CCCCN)NC(=O)[C@H](CC(C)C)NC(=O)[C@H](CC(C)C)NC(=O)[C@H](CC(C)C)NC(=O)[C@H](CC(C)C)NC(=O)[C@H](CCCCN)NC(=O)CCOCCOCCOCCOCCOCCOCCOCCOCCOCCOCCOCCOCCN)C(=O)N[C@@H](CCCCN)C(N)=O [PEG12KL4] (H-[PEG12]KLLLLKLLLLKLLLLKLLLLK-NH2; N-terminus assumed),,more sensitive in response to temperature compared with the other peptides,Over 60%,n.s.,4.9 to 1,,significantly higher transfection efficiency compared with lipofectamine 2000,n.s.,,80,most effective in transfecting siRNA,> 2000,comparable to that of Lipofectamine 2000,comparable to that of Lipofectamine 2000,superior to KL4 in mediating siRNA transfection at all tested ratios
